Measurements as given in patent publication US20140045807A2, “THE USE OF 3-METHOXY-PREGNENOLONE FOR THE PREPARATION OF A DRUG FOR TREATING A TRAUMATIC BRAIN INJURY” (priority 2004, published 2014).

Key:
[1] = molecular target: purified tubulin and MAP2 (Homo sapiens, UniProt P11137); assay: MAP2-induced polymerization of microtubules in vitro (optical density at 345 nm); assay type: biochemical
Experimental: Purified MAP2 and tubulin are mixed in the presence of GTP at 4° C. in a spectrophotometer cuvette. Polymerization is induced by heating at 37° C. and is followed by the increase in optical density (OD) which indicates the quantity of polymers formed.
This in vitro test measures the effect of molecules on the MAP2-induced polymerization of microtubules. This polymerization occurs when MAP2 proteins and tubulin are mixed at adequate concentrations in the presence of GTP. It is accompanied by an increase in optical density measured at 345 nm for 15 to 30 minutes with a UNICON spectrophotometer thermostated at 37° C. (FIG. 1).
Activity is measured by the increase in optical density at 345 nm of a mixture of purified tubulin and MAP2, incubated at 37° C. in the presence of GTP.

[2] = molecular target: MAP2 (Homo sapiens, UniProt P11137); assay: Binding (affinity) by displacement of PREG-^3H
Experimental: Binding (affinity) is measured by the displacement of PREG-^3H.

[3] = system: PC12 cells; assay: Neuritic growth / sprouting in PC12 cells with NGF; assay type: cell-based, rat; conditions: increasing concentrations, 2, 5 and 8 days of culture (FIG. 3)
Experimental: Each molecule was tested in three culture wells. Measurements were taken for 200 cells per well using Scion Image software.
Neurite (neurite) length was measured for 200 cells per well after 2, 5, and 8 days of culture.
Stimulation of neuritic sprouting is conducted on PC12 cells differentiated in the presence of NGF (10 ng/ml) and the steroid being tested (30 μM) for 3 days. For each condition, the average length of the longest 200 neurites in each cell is measured simultaneously for 3 cultures.

[4] = molecular target: Mineralocorticoid Receptor (MR) (Rattus norvegicus, UniProt P22199); assay: Radioligand binding assay, MR; conditions: MAP4343 10 μM; 4.5 nM [^3H] D-Aldosterone; Wistar Rat kidney
Experimental: (§1) Binding affinity of 3-methoxy-PREG (MAP4343) for receptors of steroid hormones was evaluated using radioligand binding assays.

[5] = molecular target: Glucorticoid Receptor (GR) (Homo sapiens, UniProt P04150); assay: Radioligand binding assay, GR; conditions: MAP4343 10 μM; 3 nM [^3H] Dexamethasone; Human HeLa S3 cells
Experimental: as §1

[6] = MAP4343 in the brain after TBI (LC-MS/MS); assay type: in vivo, rat; conditions: 20 mg/kg single injection 2 h after TBI; 4 h after injection; CHI, LFP, CCI models
Experimental: FIG. 16: 3-methoxy-PREG (MAP4343) concentrations in the brain 4 h after a single injection of MAP4343 (20 mg/kg, injected 2 h after TBI or sham-surgery).
MAP4343 was dissolved in sesame oil and injected subcutaneously. Two distinct doses of MAP4343 (10 and 20 mg/kg) were tested in each model. The injection took place 2 h after trauma.
In order to establish whether TBI modifies the passage of MAP4343 into the brain, MAP4343 was measured by liquid chromatography associated to tandem mass spectrometry (LC-MS/MS) in the brain of animals sacrificed 6 h after CHI, LFP or CCI (4 h after MAP4343 single injection).
In order to establish whether TBI modifies the passage of 3-methoxy-PREG (MAP4343) into the brain, MAP4343 was measured by liquid chromatography coupled to tandem mass spectrometry LC-MS/MS in the brain of animals sacrificed 6 h after CHI, LFP or CCI (4 h after MAP4343 injection).

[7] = system: spinophilin; assay: Western blot of spinophilin in cortex and hippocampus after CCI; assay type: in vivo, rat; conditions: 10 mg/kg or 20 mg/kg, first injection 2 h post-trauma, day 35, injured cortex and hippocampus and contralaterally
Experimental: FIG. 21: Spinophilin expression, 35 days after TBI, in the left-uninjured and right-injured hemispheres (A: cortex and B: hippocampus) of CCI-injured animals, receiving either vehicle (D0) or MAP4343 (D1: 10 mg/kg and D2: 20 mg/kg), 2 h after injury.
(§2) Samples were analyzed by Western-blot at day 35 post-trauma (D35) to evaluate the effects of MAP4343 on: MAP2 (the target of MAP4343 and a modulator of microtubule function), the post-synaptic markers PSD95 and spinophilin, the pre-synaptic marker synaptophysin, and the axonal growth/integrity marker GAP43.
(§3) Western blot was performed on cortex and hippocampus of TBI-injured animals receiving the first injection of MAP4343 (at 10 mg/kg or 20 mg/kg) or vehicle (sesame oil) 2 h after injury.
(§4) The expression level of various neuronal brain markers of plasticity was measured at day 35 post-trauma by western-blots in the cortex and hippocampus of left uninjured and right injured cerebral hemispheres of CCI traumatized animals receiving either vehicle (sesame oil, CCI-D0) or 3-methoxy-PREG (MAP4343) at 10 mg/kg (CCI-D1) or 20 mg/kg (CCI-D2), with first MAP4343 injection 2 h post-trauma.

[8] = system: synaptophysin; assay: Western blot of synaptophysin in cortex and hippocampus after CCI; assay type: in vivo, rat; conditions: 20 mg/kg, first injection 2 h post-trauma, day 35, injured hippocampus
Experimental: FIG. 22: Synaptophysin expression, 35 days after TBI, in the left-uninjured and right-injured hemispheres (A: cortex and B: hippocampus) of CCI-injured animals, receiving either vehicle (D0) or MAP4343 (D1: 10 mg/kg and D2: 20 mg/kg), 2 h after injury.
as §2, §3, §4

[9] = 40 μM, compared to control kinetics with solvent alone

Sequence of purified tubulin and MAP2 (P11137 whole entry): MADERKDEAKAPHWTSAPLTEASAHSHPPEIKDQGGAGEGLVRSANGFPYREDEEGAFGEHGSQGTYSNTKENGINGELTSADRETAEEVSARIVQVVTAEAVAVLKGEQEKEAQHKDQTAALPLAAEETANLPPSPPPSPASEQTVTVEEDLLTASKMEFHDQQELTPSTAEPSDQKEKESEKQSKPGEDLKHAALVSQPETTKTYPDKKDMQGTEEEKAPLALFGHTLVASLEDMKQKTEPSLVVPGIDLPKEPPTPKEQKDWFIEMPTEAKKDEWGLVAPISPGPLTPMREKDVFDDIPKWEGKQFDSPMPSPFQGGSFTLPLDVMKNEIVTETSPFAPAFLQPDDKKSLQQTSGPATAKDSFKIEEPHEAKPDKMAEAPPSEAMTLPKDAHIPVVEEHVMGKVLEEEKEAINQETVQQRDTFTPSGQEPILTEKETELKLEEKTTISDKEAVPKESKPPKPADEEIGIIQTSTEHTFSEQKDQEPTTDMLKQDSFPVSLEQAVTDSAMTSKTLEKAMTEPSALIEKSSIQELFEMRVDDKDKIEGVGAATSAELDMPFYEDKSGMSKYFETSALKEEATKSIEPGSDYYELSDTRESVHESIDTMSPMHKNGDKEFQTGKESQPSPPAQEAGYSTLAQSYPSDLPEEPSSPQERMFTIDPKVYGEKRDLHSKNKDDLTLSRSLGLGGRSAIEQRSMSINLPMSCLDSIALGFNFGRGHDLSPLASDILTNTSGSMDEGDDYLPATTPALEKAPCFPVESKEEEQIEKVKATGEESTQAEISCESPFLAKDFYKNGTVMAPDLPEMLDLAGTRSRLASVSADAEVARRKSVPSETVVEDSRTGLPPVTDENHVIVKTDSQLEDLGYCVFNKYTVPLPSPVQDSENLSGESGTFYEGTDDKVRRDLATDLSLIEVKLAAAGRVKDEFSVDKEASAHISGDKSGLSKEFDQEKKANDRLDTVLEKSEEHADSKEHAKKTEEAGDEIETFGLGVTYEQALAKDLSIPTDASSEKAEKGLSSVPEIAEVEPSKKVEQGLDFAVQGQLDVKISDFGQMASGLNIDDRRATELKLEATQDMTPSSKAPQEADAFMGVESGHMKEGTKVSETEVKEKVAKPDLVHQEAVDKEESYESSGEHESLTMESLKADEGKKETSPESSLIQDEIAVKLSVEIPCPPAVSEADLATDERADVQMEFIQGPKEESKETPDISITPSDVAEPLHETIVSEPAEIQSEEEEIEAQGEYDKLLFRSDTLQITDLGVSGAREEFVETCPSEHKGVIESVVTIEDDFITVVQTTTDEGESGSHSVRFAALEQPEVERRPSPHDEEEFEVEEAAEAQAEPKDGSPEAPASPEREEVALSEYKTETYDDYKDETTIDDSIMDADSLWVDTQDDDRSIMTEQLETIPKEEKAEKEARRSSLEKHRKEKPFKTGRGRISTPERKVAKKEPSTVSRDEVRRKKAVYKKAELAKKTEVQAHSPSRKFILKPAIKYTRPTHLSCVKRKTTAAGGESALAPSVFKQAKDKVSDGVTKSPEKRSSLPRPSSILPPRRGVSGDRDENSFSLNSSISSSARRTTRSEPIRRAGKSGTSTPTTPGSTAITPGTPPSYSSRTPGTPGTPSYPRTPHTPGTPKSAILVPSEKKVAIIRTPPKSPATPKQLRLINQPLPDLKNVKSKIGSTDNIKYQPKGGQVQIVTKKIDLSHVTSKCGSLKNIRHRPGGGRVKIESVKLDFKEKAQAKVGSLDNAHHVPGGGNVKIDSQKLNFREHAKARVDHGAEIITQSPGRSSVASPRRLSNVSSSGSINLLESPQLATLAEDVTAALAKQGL
Sequence of Mineralocorticoid Receptor (MR) (P22199 whole entry): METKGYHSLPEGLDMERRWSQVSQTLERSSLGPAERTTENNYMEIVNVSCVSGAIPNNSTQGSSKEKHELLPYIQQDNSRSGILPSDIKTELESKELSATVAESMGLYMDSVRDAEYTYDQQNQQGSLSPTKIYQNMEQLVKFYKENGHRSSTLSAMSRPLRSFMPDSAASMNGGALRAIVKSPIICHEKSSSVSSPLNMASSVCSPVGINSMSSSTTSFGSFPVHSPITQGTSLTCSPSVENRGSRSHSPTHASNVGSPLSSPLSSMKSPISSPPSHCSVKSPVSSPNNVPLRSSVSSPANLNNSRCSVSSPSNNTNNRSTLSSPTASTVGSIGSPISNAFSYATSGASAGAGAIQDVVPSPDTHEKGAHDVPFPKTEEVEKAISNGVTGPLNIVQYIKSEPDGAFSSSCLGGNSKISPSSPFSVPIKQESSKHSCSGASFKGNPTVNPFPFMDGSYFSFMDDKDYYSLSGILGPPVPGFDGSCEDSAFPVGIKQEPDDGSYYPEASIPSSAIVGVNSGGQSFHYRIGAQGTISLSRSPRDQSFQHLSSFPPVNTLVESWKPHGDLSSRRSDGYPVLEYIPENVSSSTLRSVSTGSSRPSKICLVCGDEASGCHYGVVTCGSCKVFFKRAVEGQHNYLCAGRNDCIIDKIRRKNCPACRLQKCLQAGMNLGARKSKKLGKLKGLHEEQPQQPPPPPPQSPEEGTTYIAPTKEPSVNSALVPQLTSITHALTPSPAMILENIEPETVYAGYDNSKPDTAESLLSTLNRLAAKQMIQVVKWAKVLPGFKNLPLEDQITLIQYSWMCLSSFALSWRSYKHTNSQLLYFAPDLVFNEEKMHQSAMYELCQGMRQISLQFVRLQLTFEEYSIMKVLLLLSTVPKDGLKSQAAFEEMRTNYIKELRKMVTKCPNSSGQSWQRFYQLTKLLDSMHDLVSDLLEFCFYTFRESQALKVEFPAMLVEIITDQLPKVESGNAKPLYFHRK
Sequence of MAP2 (P11137 whole entry): as the sequence (P11137 whole entry) above
Sequence of Glucorticoid Receptor (GR) (P04150 whole entry): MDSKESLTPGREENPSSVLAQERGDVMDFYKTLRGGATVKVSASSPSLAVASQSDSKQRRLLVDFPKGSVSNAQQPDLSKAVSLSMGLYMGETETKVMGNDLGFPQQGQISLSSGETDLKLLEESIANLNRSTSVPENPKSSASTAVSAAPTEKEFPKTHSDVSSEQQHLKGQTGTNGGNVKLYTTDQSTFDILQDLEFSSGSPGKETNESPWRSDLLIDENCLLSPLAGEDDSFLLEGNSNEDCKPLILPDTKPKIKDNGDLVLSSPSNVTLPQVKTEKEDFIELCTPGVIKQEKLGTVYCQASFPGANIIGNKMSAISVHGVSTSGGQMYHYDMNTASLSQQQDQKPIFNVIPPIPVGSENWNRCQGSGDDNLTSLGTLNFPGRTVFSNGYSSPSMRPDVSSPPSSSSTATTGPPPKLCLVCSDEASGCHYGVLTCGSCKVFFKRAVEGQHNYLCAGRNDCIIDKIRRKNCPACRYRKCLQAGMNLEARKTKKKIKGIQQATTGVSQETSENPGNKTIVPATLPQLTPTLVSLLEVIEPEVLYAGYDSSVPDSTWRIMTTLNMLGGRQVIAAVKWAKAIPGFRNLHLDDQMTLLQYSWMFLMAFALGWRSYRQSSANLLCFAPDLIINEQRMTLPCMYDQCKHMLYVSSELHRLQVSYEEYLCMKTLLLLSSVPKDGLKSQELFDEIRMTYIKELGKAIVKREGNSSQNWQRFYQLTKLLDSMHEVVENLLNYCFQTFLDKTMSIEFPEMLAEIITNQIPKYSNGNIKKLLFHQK

SMILES: CO[C@H]1CC[C@@]2(C)C(=CC[C@H]3[C@@H]4CC[C@H](C(C)=O)[C@@]4(C)CC[C@@H]32)C1 [3-methoxy-PREG, 3β-methoxy-pregna-5-ene-20-one]
- Lag time of microtubule polymerization [1, 9]: decreased
- polymerization rate and quantity of microtubules [1, 9]: clearly increase
- effect on microtubule polymerization ([1]; MAP2 and tubulin with GTP, 37° C.): activates microtubule polymerization
- Activity (increase in optical density at 345 nm) ([1]; purified tubulin and MAP2, 37° C., GTP): 100% of PREG
- Affinity (index of binding) [2]: 100% of PREG
- increase in the length of neurites formed in the presence of NGF [3]: ≤ 500%
- % inhibition of specific binding [4]: < 25%
- % inhibition of specific binding [5]: < 25%
- MAP4343 concentrations in the brain [6]: concentrations of MAP4343 of significant therapeutic interest reach the brain
- spinophilin expression [7]: increase in spinophilin expression
- Synaptophysin expression [8]: increase in Synaptophysin expression
